Measured values taken from PubChem BioAssay (NCI).
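1) Cells in 96-well plates. 2) Compound, 48 h, 5 concentrations. 3) Linear interpolation between surrounding doses. 4) Unreached endpoint = highest concentration. Abbreviation: GI50, concentration required for 50% inhibition of growth. TGI is the concentration that stops growth completely.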

How the values were obtained:
Assay in all cases: inhibition of tumour cell growth, NCI panel, 48 h
786-0 renal = tested on: 786-0 renal
A498 renal = tested on: A498 renal
A549 NSCLC = tested on: A549 NSCLC
ACHN renal = tested on: ACHN renal
BT-549 breast = tested on: BT-549 breast
CAKI-1 renal = tested on: CAKI-1 renal
CCRF-CEM leukemia = tested on: CCRF-CEM leukemia
COLO 205 colon = tested on: COLO 205 colon
DU-145 prostate = tested on: DU-145 prostate
EKVX NSCLC = tested on: EKVX NSCLC
HCC-2998 colon = tested on: HCC-2998 colon
HCT-116 colon = tested on: HCT-116 colon
HCT-15 colon = tested on: HCT-15 colon
HL-60(TB) leukemia = tested on: HL-60(TB) leukemia
HOP-62 NSCLC = tested on: HOP-62 NSCLC
HOP-92 NSCLC = tested on: HOP-92 NSCLC
HS 578T breast = tested on: HS 578T breast
HT29 colon = tested on: HT29 colon
IGROV1 ovarian = tested on: IGROV1 ovarian
K-562 leukemia = tested on: K-562 leukemia
KM12 colon = tested on: KM12 colon
LOX IMVI melanoma = tested on: LOX IMVI melanoma
M14 melanoma = tested on: M14 melanoma
MCF7 breast = tested on: MCF7 breast
MDA-MB-231 breast = tested on: MDA-MB-231 breast
MDA-MB-435 = tested on: MDA-MB-435
MOLT-4 leukemia = tested on: MOLT-4 leukemia
NCI-H226 lung = tested on: NCI-H226 lung
NCI-H23 lung = tested on: NCI-H23 lung

## CCCn1cnc2c(c1=N)C(c1ccc(OC)cc1)c1sc3c(C)cccc3c1O2 (stereo unspecified)
786-0 renal
  GI50: 523 nM
  TGI: 14400 nM
A498 renal
  GI50: 317 nM
  TGI: 1030 nM
A549 NSCLC
  GI50: 717 nM
  TGI: 18100 nM
ACHN renal
  GI50: 604 nM
  TGI: 15200 nM
BT-549 breast
  GI50: 1350 nM
  TGI: 12700 nM
CAKI-1 renal
  GI50: 208 nM
  TGI: 15000 nM
CCRF-CEM leukemia
  GI50: 355 nM
COLO 205 colon
  GI50: 592 nM
  TGI: 4920 nM
DU-145 prostate
  GI50: 453 nM
  TGI: 15200 nM
EKVX NSCLC
  GI50: 598 nM
  TGI: 20400 nM
HCC-2998 colon
  GI50: 886 nM
  TGI: 4910 nM
HCT-116 colon
  GI50: 400 nM
  TGI: 10900 nM
HCT-15 colon
  GI50: 408 nM
  TGI: 8680 nM
HL-60(TB) leukemia
  GI50: 292 nM
  TGI: 2680 nM
HOP-62 NSCLC
  GI50: 406 nM
  TGI: 16700 nM
HOP-92 NSCLC
  GI50: 1180 nM
  TGI: 16600 nM
HS 578T breast
  GI50: 381 nM
  TGI: 8870 nM
HT29 colon
  GI50: 557 nM
  TGI: 13700 nM
IGROV1 ovarian
  GI50: 472 nM
  TGI: 13900 nM
K-562 leukemia
  GI50: 261 nM
  TGI: 5520 nM
KM12 colon
  GI50: 474 nM
  TGI: 12000 nM
LOX IMVI melanoma
  GI50: 656 nM
  TGI: 12300 nM
M14 melanoma
  GI50: 401 nM
  TGI: 12500 nM
MCF7 breast
  GI50: 303 nM
  TGI: 12900 nM
MDA-MB-231 breast
  GI50: 1150 nM
  TGI: 15900 nM
MDA-MB-435
  GI50: 187 nM
  TGI: 484 nM
MOLT-4 leukemia
  GI50: 569 nM
  TGI: 12700 nM
NCI-H226 lung
  GI50: 419 nM
  TGI: 9600 nM
NCI-H23 lung
  GI50: 535 nM
